Patent US11617726B2, “Method for preventing, treating, or ameliorating a microbial infection” (priority 2018, dated 2023)
Values after ≈ are worked out from the molar mass of the structure shown. Read-outs that look alike come from different tables or passages of the source.

Key:
[1] = test system: Acinetobacter baumannii isolates and Acinetobacter baumannii ATCC BAA 747; experiment: MIC determination by broth dilution method (CLSI M07-A9); type: cell-based; details: Acinetobacter baumannii
Protocol: (§1) Minimum Inhibitory Concentration (MIC) is the lowest concentration of an antimicrobial agent that prevents visible growth of a microorganism in an agar or broth dilution susceptibility test. MIC of thymoquinone was determined by the broth dilution method against 33 MDR Acinetobacter baumannii strains and standard sensitive culture collection strain of Acinetobacter baumannii and Pseudomonas aeruginosa. The MIC of gentamicin was deter lined by broth dilution method against six MDR Acinetobacter baumannii strains and standard sensitive culture collection strains of Acinetobacter baumannii and Pseudomonas aeruginosa. MIC testing was performed according to the recommendations and guidelines of Clinical Laboratory Standard Institutes (CLSI M07-A9; 2012). Clinical and Laboratory Standards Institute (CLSI), “Methods for Dilution Antimicrobial Susceptibility Tests for Bacteria That Grow Aerobically; Approved Standard,” Document M07-A9, Clinical and Laboratory Standards Institute (CLSI), Wayne, Pa., USA, 2012.
(§2) Twenty-one grams of Mueller-Hinton Broth (MHB) was suspended in 1 Liter distilled water and then boiled to dissolve the powder completely. The medium was sterilized by autoclaving at 121° C. for 15 min. After autoclaving, the medium was cooled to room temperature before use or stored in the fridge until used.
(§3) Thymoquinone was weighed and dissolved in Dimethyl sulfoxide (DMSO) to produce a thymoquinone stock solution with a concentration of 5,120 μg/ml. Gentamicin sulfate was weighed and dissolved in water to produce a gentamicin sulfate stock solution with a concentration of 5,120 μg/ml, equivalent to gentamicin base.
(§4) Dilutions of thymoquinone and gentamicin sulfate stock solutions were prepared volumetrically in the MHB as follows:
(§5) One mL of original stock solution (5,120 μg/ml) was added to 9 ml sterile MHB to give the working first dilution (512 μg/mL). 12 sterile 7 mL PJ tubes were arranged in a rack in a row. Each tube contained one mL sterile MHB. Ten tubes were labeled as 128 μg/mL, 64 μg/mL, 32 μg/mL, 16 μg/mL, 8 μg/mL, 4 μg/mL, 2 μg/mL, 1 μg/mL, 0.5 μg/mL and 0.25 μg/mL. The eleventh and twelfth tubes were labeled as positive and negative control, respectively.
(§6) The working dilution (512 μg/mL) was serially diluted to give two-fold dilutions. One mL of the working dilution (512 μg/mL) was dispensed in the first tube (labeled as 128 μg/mL) to give a concentration of 256 μg drug/mL MHB. One mL of the first tube was added to the second tube (labeled as 64 μg/mL) to give a concentration of 128 μg drug/mL MHB. One mL of the second tube was transferred to the third tube (labeled as 32 μg/mL) to give a concentration of 64 μg drug/mL MHB. One mL of the third tube was added to the fourth tube (labeled as 16 μg/mL) to give a concentration of 32 μg drug/mL MHB. One mL of the fourth tube was dispensed in the fifth tube (labeled as 8 μg/mL) to give a concentration of 16 μg drug/mL MHB. One mL of the fifth tube was dispensed in the sixth tube (labeled as 4 μg/mL) to give a concentration of 8 μg drug/mL MHB. One mL of the sixth tube was added to the seventh tube (labeled as 2 μg/mL) to give a concentration of 4 μg drug/mL MHB. One mL of the seventh tube was added to the eighth tube (labeled as 1 μg/mL) to give a concentration of 2 μg drug/mL MHB. One mL of the eighth tube was transferred to the ninth tube (labeled as 0.5 μg/mL) to give a concentration of 1 μg drug/mL MHB. One mL of the ninth tube was transferred to the tenth tube (labeled as 0.25 μg/mL) to give a concentration of 0.5 μg drug/mL MHB. The contents were mixed thoroughly by pipetting up and down three times. One mL of the content of the tenth tube was discarded.
(§7) The inoculum suspensions (at 1-2×10^8 CFU/mL) were diluted 1:100 in MHB to obtain 1×10^6 CFU/mL. One mL of the diluted inoculum suspension (1×10^6 CFU/mL) was transferred to each tube except tube 12.
(§8) All inoculated tubes were incubated for 16-20 hours at 37° C. aerobically. […]

[2] = test system: Pseudomonas aeruginosa ATCC 27853; experiment: as above; type: cell-based; details: Pseudomonas aeruginosa, ATCC27853, P. aeruginosa ATCC 27853, read-out: MIC
Protocol: as §1, §2, §3, §4, §5, §6, §7, §8

Compound: CC1=CC(=O)C(C(C)C)=CC1=O [Thymoquinone, 2-isopropyl-5-methylbenzo-1,4-quinone]
- MIC ([1]; BAA747, A. baumannii ATCC BAA 747 (standard sensitive strain), read-out: MIC): 32 µg/mL (≈ 195 µM)
- MIC ([1]; BAA747, isolate AB1, read-out: MIC): 32 µg/mL (≈ 195 µM)
- MIC ([1]; BAA747, isolate AB2, read-out: MIC): 32 µg/mL (≈ 195 µM)
- MIC ([1]; BAA747, isolate AB3, read-out: MIC): 32 µg/mL (≈ 195 µM)
- MIC ([1]; BAA747, isolate AB4, read-out: MIC): 32 µg/mL (≈ 195 µM)
- MIC ([1]; BAA747, isolate AB5, read-out: MIC): 32 µg/mL (≈ 195 µM)
- MIC ([1]; BAA747, isolate AB6, read-out: MIC): 64 µg/mL (≈ 390 µM)
- MIC ([1]; BAA747, isolate AB7, read-out: MIC): 32 µg/mL (≈ 195 µM)
- MIC ([1]; BAA747, isolate AB8, read-out: MIC): 32 µg/mL (≈ 195 µM)
- MIC ([1]; BAA747, isolate AB9, read-out: MIC): 32 µg/mL (≈ 195 µM)
- MIC ([1]; BAA747, isolate AB10, read-out: MIC): 16 µg/mL (≈ 97.4 µM)
- MIC ([1]; BAA747, isolate AB11, read-out: MIC): 32 µg/mL (≈ 195 µM)
- MIC ([1]; BAA747, isolate AB12, read-out: MIC): 32 µg/mL (≈ 195 µM)
- MIC ([1]; BAA747, isolate AB13, read-out: MIC): 32 µg/mL (≈ 195 µM)
- MIC ([1]; BAA747, isolate AB14, read-out: MIC): 32 µg/mL (≈ 195 µM)
- MIC ([1]; BAA747, isolate AB15, read-out: MIC): 32 µg/mL (≈ 195 µM)
- MIC ([1]; BAA747, isolate AB16, read-out: MIC): 64 µg/mL (≈ 390 µM)
- MIC ([1]; BAA747, isolate AB17, read-out: MIC): 64 µg/mL (≈ 390 µM)
- MIC ([1]; BAA747, isolate AB18, read-out: MIC): 32 µg/mL (≈ 195 µM)
- MIC ([1]; BAA747, isolate AB19, read-out: MIC): 64 µg/mL (≈ 390 µM)
- MIC ([1]; BAA747, isolate AB20, read-out: MIC): 64 µg/mL (≈ 390 µM)
- MIC ([1]; BAA747, isolate AB21, read-out: MIC): 32 µg/mL (≈ 195 µM)
- MIC ([1]; BAA747, isolate AB22, read-out: MIC): 64 µg/mL (≈ 390 µM)
- MIC ([1]; BAA747, isolate AB23, read-out: MIC): 32 µg/mL (≈ 195 µM)
- MIC ([1]; BAA747, isolate AB24, read-out: MIC): 32 µg/mL (≈ 195 µM)
- MIC ([1]; BAA747, isolate AB25, read-out: MIC): 32 µg/mL (≈ 195 µM)
- MIC ([1]; BAA747, isolate AB26, read-out: MIC): 64 µg/mL (≈ 390 µM)
- MIC ([1]; BAA747, isolate AB27, read-out: MIC): 64 µg/mL (≈ 390 µM)
- MIC ([1]; BAA747, isolate AB28, read-out: MIC): 64 µg/mL (≈ 390 µM)
- MIC ([1]; BAA747, isolate AB29, read-out: MIC): 64 µg/mL (≈ 390 µM)
- MIC ([1]; BAA747, isolate AB30, read-out: MIC): 32 µg/mL (≈ 195 µM)
- MIC ([1]; BAA747, isolate AB31, read-out: MIC): 32 µg/mL (≈ 195 µM)
- MIC ([1]; BAA747, isolate AB32, read-out: MIC): 32 µg/mL (≈ 195 µM)
- MIC ([1]; BAA747, isolate AB33, read-out: MIC): 32 µg/mL (≈ 195 µM)
- MIC [2]: 64 µg/mL (≈ 390 µM)
